Assay results: patent publication US7118895B2, “Process for producing aglycon by using diglycosidase and flavor-improved food containing the aglycon and converting agent to be used in the process” (Amano Enzyme Inc., priority 2000, dated 2006)

System: Crude diglycosidase
Assay: Examination of pH in the conversion into isoflavone aglycons by diglycosidase using soybean materials
Assay type: biochemical, Penicillium multicolor IAM7153
Details: for Decomposition efficiency of glycitin family in roasted soy flour / Decomposition efficiency of glycitin family in soymilk / existing ratio of aglycon of each isoflavone family: 55° C.
Experimental: A substrate solution of 450 μL was prepared by suspending 50 mg of each soybean material (roasted soy flour (manufactured by Fuji Shokuryo K.K.), soymilk (manufactured by Gitoh Shokuhin K.K.), defatted soybean (manufactured by Fuji Seiyu K.K.), concentrated soybean protein (manufactured by Fuji Seiyu K.K.)), and adjusting the pH to 2 to 11 with hydrochloric acid or sodium hydroxide. Each enzyme solution of pH 2–11 wherein diglycosidase activity of crude diglycosidase was adjusted to 1.88 AU/mL was added thereto in an amount of 50 μL and the whole was reacted at 55° C. at the total volume of 500 μL. To the reaction mixture was added 700 μL of ethanol after 0, 1, 3, and 6 hours of the reaction. After stirring and ultrasonication, the mixture was subjected to centrifugal separation at 15,000 rpm and 4° C. for 10 minutes. The supernatant was filtered through a filter and the existence of isoflavone glycosides and aglycon isoflavones contained in the reaction mixture was detected by HLPC (Tables 15 to 26).

[1] = pH6.6, heat treatment of enzyme: no, reaction time 0 h
[2] = pH6.6, heat treatment of enzyme: no, reaction time 1 h
[3] = pH6.6, heat treatment of enzyme: no, reaction time 3 h
[4] = pH6.6, heat treatment of enzyme: no, reaction time 6 h
[5] = pH6.6, heat treatment of enzyme: yes, reaction time 6 h

COc1cc2c(=O)c(-c3ccc(O)cc3)coc2cc1O [glycitein]
Decomposition efficiency of glycitin family in roasted soy flour (pH5, heat treatment of enzyme no, reaction time 0 h): 8.6
Decomposition efficiency of glycitin family in roasted soy flour (pH5, heat treatment of enzyme no, reaction time 1 h): 77.1
Decomposition efficiency of glycitin family in roasted soy flour (pH5, heat treatment of enzyme no, reaction time 3 h): 93.5
Decomposition efficiency of glycitin family in roasted soy flour (pH5, heat treatment of enzyme no, reaction time 6 h): 100.0
Decomposition efficiency of glycitin family in roasted soy flour (pH5, heat treatment of enzyme yes, reaction time 6 h): 9.4
Decomposition efficiency of glycitin family in concentrated soybean protein (pH5.1, heat treatment of enzyme: no, reaction time 0 h): 11.1%
Decomposition efficiency of glycitin family in concentrated soybean protein (pH5.1, heat treatment of enzyme: no, reaction time 1 h): 62.1%
Decomposition efficiency of glycitin family in concentrated soybean protein (pH5.1, heat treatment of enzyme: no, reaction time 3 h): 73.4%
Decomposition efficiency of glycitin family in concentrated soybean protein (pH5.1, heat treatment of enzyme: no, reaction time 6 h): 78.5%
Decomposition efficiency of glycitin family in concentrated soybean protein (pH5.1, heat treatment of enzyme: yes, reaction time 6 h): 11.5%
Decomposition efficiency of glycitin family in defatted soybean (pH5.4, heat treatment of enzyme: no, reaction time 0 h): 36.0%
Decomposition efficiency of glycitin family in defatted soybean (pH5.4, heat treatment of enzyme: no, reaction time 1 h): 54.9%
Decomposition efficiency of glycitin family in defatted soybean (pH5.4, heat treatment of enzyme: no, reaction time 3 h): not detected
Decomposition efficiency of glycitin family in defatted soybean (pH5.4, heat treatment of enzyme: no, reaction time 6 h): 67.7%
Decomposition efficiency of glycitin family in defatted soybean (pH5.4, heat treatment of enzyme: yes, reaction time 6 h): 60.7%
Decomposition efficiency of glycitin family in soymilk (pH6.2, heat treatment of enzyme no, reaction time 0 h): 6.2
Decomposition efficiency of glycitin family in soymilk (pH6.2, heat treatment of enzyme no, reaction time 1 h): 53.6
Decomposition efficiency of glycitin family in soymilk (pH6.2, heat treatment of enzyme no, reaction time 3 h): 65.5
Decomposition efficiency of glycitin family in soymilk (pH6.2, heat treatment of enzyme no, reaction time 6 h): 70.4
Decomposition efficiency of glycitin family in soymilk (pH6.2, heat treatment of enzyme yes, reaction time 6 h): 8.2
Decomposition efficiency of glycitin family in roasted soy flour (pH6.5, heat treatment of enzyme no, reaction time 0 h): 8.8
Decomposition efficiency of glycitin family in roasted soy flour (pH6.5, heat treatment of enzyme no, reaction time 1 h): 65.0
Decomposition efficiency of glycitin family in roasted soy flour (pH6.5, heat treatment of enzyme no, reaction time 3 h): 80.3
Decomposition efficiency of glycitin family in roasted soy flour (pH6.5, heat treatment of enzyme no, reaction time 6 h): 88.1
Decomposition efficiency of glycitin family in roasted soy flour (pH6.5, heat treatment of enzyme yes, reaction time 6 h): 9.8
Decomposition efficiency of glycitin family in concentrated soybean protein [1]: 11.3%
Decomposition efficiency of glycitin family in defatted soybean [1]: 60.4%
Decomposition efficiency of glycitin family in concentrated soybean protein [2]: 42.2%
Decomposition efficiency of glycitin family in defatted soybean [2]: 47.1%
Decomposition efficiency of glycitin family in concentrated soybean protein [3]: 60.3%
Decomposition efficiency of glycitin family in defatted soybean [3]: 46.4%
Decomposition efficiency of glycitin family in concentrated soybean protein [4]: 68.1%
Decomposition efficiency of glycitin family in defatted soybean [4]: 41.9%
Decomposition efficiency of glycitin family in concentrated soybean protein [5]: 11.1%
Decomposition efficiency of glycitin family in defatted soybean [5]: 49.7%
Decomposition efficiency of glycitin family in soymilk (pH7.2, heat treatment of enzyme no, reaction time 0 h): 6.1
Decomposition efficiency of glycitin family in soymilk (pH7.2, heat treatment of enzyme no, reaction time 1 h): 51.2
Decomposition efficiency of glycitin family in soymilk (pH7.2, heat treatment of enzyme no, reaction time 3 h): 53.8
Decomposition efficiency of glycitin family in soymilk (pH7.2, heat treatment of enzyme no, reaction time 6 h): 58.4
Decomposition efficiency of glycitin family in soymilk (pH7.2, heat treatment of enzyme yes, reaction time 6 h): 5.6
Decomposition efficiency of glycitin family in defatted soybean (pH7.8, heat treatment of enzyme: no, reaction time 0 h): 33.2%
Decomposition efficiency of glycitin family in defatted soybean (pH7.8, heat treatment of enzyme: no, reaction time 1 h): 42.5%
Decomposition efficiency of glycitin family in defatted soybean (pH7.8, heat treatment of enzyme: no, reaction time 3 h): 46.8%
Decomposition efficiency of glycitin family in defatted soybean (pH7.8, heat treatment of enzyme: no, reaction time 6 h): 50.9%
Decomposition efficiency of glycitin family in defatted soybean (pH7.8, heat treatment of enzyme: yes, reaction time 6 h): 44.2%
Decomposition efficiency of glycitin family in roasted soy flour (pH8.5, heat treatment of enzyme no, reaction time 0 h): 9.6
Decomposition efficiency of glycitin family in roasted soy flour (pH8.5, heat treatment of enzyme no, reaction time 1 h): 28.2
Decomposition efficiency of glycitin family in roasted soy flour (pH8.5, heat treatment of enzyme no, reaction time 3 h): 40.1
Decomposition efficiency of glycitin family in roasted soy flour (pH8.5, heat treatment of enzyme no, reaction time 6 h): 47.4
Decomposition efficiency of glycitin family in roasted soy flour (pH8.5, heat treatment of enzyme yes, reaction time 6 h): 9.1
Decomposition efficiency of glycitin family in concentrated soybean protein (pH8.6, heat treatment of enzyme: no, reaction time 0 h): 11.7%
Decomposition efficiency of glycitin family in concentrated soybean protein (pH8.6, heat treatment of enzyme: no, reaction time 1 h): 15.4%
Decomposition efficiency of glycitin family in concentrated soybean protein (pH8.6, heat treatment of enzyme: no, reaction time 3 h): 21.0%
Decomposition efficiency of glycitin family in concentrated soybean protein (pH8.6, heat treatment of enzyme: no, reaction time 6 h): 30.9%
Decomposition efficiency of glycitin family in concentrated soybean protein (pH8.6, heat treatment of enzyme: yes, reaction time 6 h): 11.3%
Decomposition efficiency of glycitin family in soymilk (pH11.6, heat treatment of enzyme no, reaction time 0 h): 6.2
Decomposition efficiency of glycitin family in soymilk (pH11.6, heat treatment of enzyme no, reaction time 1 h): 49.6
Decomposition efficiency of glycitin family in soymilk (pH11.6, heat treatment of enzyme no, reaction time 3 h): 53.5
Decomposition efficiency of glycitin family in soymilk (pH11.6, heat treatment of enzyme no, reaction time 6 h): 56.0
Decomposition efficiency of glycitin family in soymilk (pH11.6, heat treatment of enzyme yes, reaction time 6 h): 5.8
existing ratio of aglycon of each isoflavone family (roasted soy flour, pH 4 for 6 hours): 100%
existing ratio of aglycon of each isoflavone family (soymilk, pH 3.5 for 6 hours): 100%
